In patent publication EP1501797B1, “3-(SUBSTITUTED AMINO)-1H-INDOLE-2-CARBOXYLIC ACID ESTER AND 3-(SUBSTITUTED AMINO)-BENZO[B]THIOPHENE-2-CARBOXYLIC ACID ESTER DERIVATIVES AS INTERLEUKIN-4 GENE EXPRESSION INHIBITORS” (Aventis Pharmaceuticals Inc., priority 2002, dated 2003):

How the values were obtained:
Human Th2 cells = assay: Human primary Th2 cells, proliferation (viability, MTS assay); format: cell-based; settings: human primary Th2 cells, anti-CD3 and anti-CD28 (Table 5); read-out: Prolif. IC50
Description: (§1) Briefly, CD4^+CD45RA^+ T cells, isolated from donor peripheral blood mononuclear cells of healthy donors, are educated in the presence of anti-CD3/CD28 antibodies and various growth factors to obtain either a Thl-like or Th2-like phenotypes as determined by the known cytokine profiles of these two cell types.
(§2) Peripheral blood mononuclear cells (PBMC) are prepared from human blood by Ficoll-Hypacque (Pharmacia). The cells are washed two times in Hanks balanced salt solution (HBSS) and counted.
(§3) Naive T cells (CD4^+/CD45RA ) are prepared by negative selection method using following antibodies and Dynabeads: anti-CD8, anti-HLA-DR, (where HLA means human leucocyte antigen) anti-CD14, anti-CD16, anti-CD19, anti-CD45RO antibodies (all from R&D Systems, 1-2 µg/ml) are added to the cells, and the cells are kept on ice for 30 min. The cells are washed two times in HBSS, and goat anti- mouse Ig-beads, (bead:target ratio, 5:1) are added. The cells and beads are slowly rotated at 4°C for 20 min. (following the protocol supplied from Dynal). The supernatant is removed and fresh goat anti-mouse Ig-beads are added to the supernatant, which is slowly rotated at 4°C for 20 min. The cells are counted and phenotypically characterized by flow cytometric analysis.
(§4) CD4^+/CD45RA^+ cells at a density of 10^6/ml in RPMI, is prepared and added to RPMI medium containing 10% Hyclone serum/ glutamine and 1-2 µg/ml anti-CD28 Ab. The cells are split in two aliquots. For Th1 cells: anti-IL-4 Ab (1-2 µg/ml), IFN-γ (1 µg/ml, or 5000 units/ml) are added to the wells. For Th2 cells: IL-4 (100-200 ng/ml), anti-IFN-γ neutralizing Ab (1-2 µg/ml), anti-IL-12 neutralizing Ab (1-2 µg/ml) are added into the wells. […] The cells are transferred to fresh wells and grown in 200 units/ml IL-2 for 2 weeks by feeding them every other day with IL-2 containing medium and splitting the cultures 1:2 or 1:3 as needed. The degree of polarization is determined by intracellular staining of cells with anti-IFN-γ and anti-IL-4 antibodies from Pharmingen, and using flow cytometry from Becton Dickinson (BD), according to manufacturers description. The cells are stimulated with PHA and alloantigens at day 14 and 28 as described below. Eight days after the second allostimulation the cells can be used for compound screening or frozen for future use. For compound testing, large quantities of Th1 and Th2 cells derived from a given donor (NYTh1 and NYTh2) were expanded and frozen as aliquots in liquid nitrogen. The cells are thawed and cultured as and when needed. The thawed cells are stimulated with alloantigen/PHA combination. The cells are used for compound screening after 8-10 days in culture.
(§5) Re-stimulation by allogeneic cells: Human PBMCs, to be used as alloantigens, are isolated from freshly drawn blood by Ficoll separation. […] Cells are counted and diluted to a final concentration of 2 x 10^6/ml in medium containing 10 µg/ml PHA and 200 units/ml IL-2.
(§6) Ninetysix well Falcon tissue culture plates (Fisher Scientific) are coated with 100 microliters per well of 10 µg/ml anti-CD3 (PharMingen) antibody in phosphate buffered saline (PBS) and stored at 4°C one day before the experiment.
(§7) On the day of assay, anti-CD3 antibody coated plates are washed with PBS once to remove all soluble anti-CD3 antibody. […] All compounds and controls are assayed in triplicates.

IFN-γ = assay: Human primary Th2 cells, anti-CD3/anti-CD28 activated, IFN-γ ELISA; format: cell-based; settings: human primary Th2 cells, anti-CD3 and anti-CD28 (Table 5)
Description: as §1, §2, §3, §4, §5, §6, §7

IL-13 = assay: Human primary Th2 cells, anti-CD3/anti-CD28 activated, IL-13 ELISA; format: cell-based; settings: human primary Th2 cells, anti-CD3 and anti-CD28 (Table 5)
Description: as §1, §2, §3, §4, §5, §6, §7

IL-4 = assay: Human primary Th2 cells, anti-CD3/anti-CD28 activated, IL-4 ELISA; format: cell-based; settings: human primary Th2 cells, anti-CD3 and anti-CD28 (Table 5)
Description: as §1, §2, §3, §4, §5, §6, §7

IL-5 = assay: Human primary Th2 cells, anti-CD3/anti-CD28 activated, IL-5 ELISA; format: cell-based; settings: human primary Th2 cells, anti-CD3 and anti-CD28 (Table 5)
Description: as §1, §2, §3, §4, §5, §6, §7

in vitro = settings: mouse, swiss 3t3 fibroblasts
Description: A third assay utilized in the present invention involves an in vitro cytotoxicity assay. This assay is used to further characterize the compounds in order to assess toxic activities of compounds on contact inhibited, non-dividing 3T3 fibroblasts. Other toxicity assays may be used.
Contact inhibited Swiss 3T3 fibroblasts are purchased from ATCC. The cells are maintained in 1640 RPMI supplemented with 10% fetal bovine serum (Gibco).
On day of assay, cells are detached from flasks by trypsinization, washed in medium and counted. 100 microliters of 2.5 x 10^4 cells per well are plated into Falcon brand 96 well tissue culture plates and cells incubated at 37°C in presence of 5% CO2 for 2 days or until confluent.
[…] All compound dilutions are assayed in triplicate. […] Cells are returned to the incubator for 2 days.
After 2 day incubation, the 3T3 cells are assayed for viability using an MTS Assay Kit (Promega). Media is added to blank wells for background calculations. After 2 hours incubation in kit reagent, the optical density at 490 nm for each compound and control is determined by plate reader.
Results are expressed as percent cytotoxicity, i.e., (mean OD of compound wells - background OD)/ (mean OD of controls - background).
Note that starting concentration of CsA was 1 µM. […]

Compound | IC50 (IFN-γ) | IC50 (IL-13) | IC50 (IL-4) | IC50 (IL-5) | IC50 (Human Th2 cells) | viability at 48 h, 0.001 µM (in vitro) | viability at 48 h, 0.003 µM (in vitro) | viability at 48 h, 0.01 µM (in vitro) | viability at 48 h, 0.03 µM (in vitro) | viability at 48 h, 0.1 µM (in vitro) | viability at 48 h, 3 µM (in vitro) | viability at 48 h, 10 µM (in vitro)
CN(c1c(C(=O)O)[nH]c2cc(Cl)cc(Cl)c12)S(=O)(=O)c1ccccc1 [Reference Example 92, 3-((Phenylsulfonyl)methylamino)-4,6-dichloro-1H-indole-2-carboxylic acid] | > 10 µM | > 10 µM | 0.45 µM | > 10 µM | > 10 µM |  |  |  |  |  |  | 
CCOC(=O)c1[nH]c2cc(Cl)cc(Cl)c2c1N(Cc1ccccc1)C(=O)c1ccccc1 [Example 89, 3-((Benzoyl)benzylamino)-4,6-dichloro-1H-indole-2-carboxylic acid ethyl ester] | > 10 µM | > 10 µM | 2.5 µM | 8 µM | 4 µM |  |  |  |  |  |  | 
CN(C)CCOC(=O)c1[nH]c2cc(Cl)ccc2c1NC(=O)c1ccccc1 [Example 79, 3-((Benzoyl)amino)-6-chloro-1H-indole-2-carboxylic acid 2-dimethylamino-ethyl ester] | > 10 µM | > 10 µM | 5 µM | > 10 µM | > 10 µM |  |  |  |  |  |  | 
CCOC(=O)c1c(Nc2ccncc2)c2ccccc2n1C [Reference Example 24A, 1-Methyl-3-(4-pyridinylamino)-1H-indole-2-carboxylic ethyl ester] | > 10 µM | > 10 µM | 2 µM | > 10 µM | > 10 µM |  |  |  |  |  |  | 
O=C(O)c1[nH]c2cc(Cl)cc(Cl)c2c1NS(=O)(=O)c1ccccc1 [Reference Example 91, 3-((Phenylsulfonyl)amino)-4,6-dichloro-1H-indole-2-carboxylic acid] | > 10 µM | > 10 µM | 1 µM | > 10 µM | > 10 µM |  |  |  |  |  |  | 
CN(Cc1cnc2nc(N)nc(N)c2n1)c1ccc(C(=O)N[C@@H](CCC(=O)O)C(=O)O)cc1 [Methotrexate] |  |  |  |  |  | 113% | 105% | 103% | 100% | 98.9% | 93.8% | 92.4%
CN(C(=O)CCc1ccccc1)c1c(C(=O)O)[nH]c2cc(Cl)ccc12 [Reference Example 76, 3-((3-Phenylpropanoyl)methylamino)-1H-6-chloro-indole-2-carboxylic acid] | > 10 µM | > 10 µM | 4 µM | > 10 µM | > 10 µM |  |  |  |  |  |  | 
CCOC(=O)c1[nH]c2cc(Cl)cc(Cl)c2c1NS(=O)(=O)c1ccccc1 [Example 90, 3-((Phenylsulfonyl)amino)-4,6-dichloro-1H-indole-2-carboxylic acid ethyl ester] | > 10 µM | > 10 µM | 1 µM | > 10 µM | > 10 µM |  |  |  |  |  |  | 
O=C(Nc1c(C(=O)O)[nH]c2cc(Cl)cc(Cl)c12)c1ccccc1Cc1ccccc1 [Reference Example 87, 3-((2-Benzylbenzoyl)amino)-4,6-dichloro-1H-indole-2-carboxylic acid] | > 10 µM | > 10 µM | 0.6 µM | 2 µM | > 10 µM |  |  |  |  |  |  | 
C[C@@H]1C[C@H]2[C@@H]3CCC4=CC(=O)C=C[C@]4(C)[C@@]3(F)[C@@H](O)C[C@]2(C)[C@@]1(O)C(=O)CO [Dexamethasone] |  |  |  |  |  | 100% | 77.9% | 71.6% | 67.8% | 64.2% | 60.7% | 60.5%

Second part, led by results:

IC50 (IFN-γ) | IC50 (IL-13) | IC50 (IL-4) | IC50 (IL-5) | Compound | IC50 (Human Th2 cells) | viability at 48 h, 0.001 µM (in vitro) | viability at 48 h, 0.003 µM (in vitro) | viability at 48 h, 0.01 µM (in vitro) | viability at 48 h, 0.03 µM (in vitro) | viability at 48 h, 0.1 µM (in vitro) | viability at 48 h, 3 µM (in vitro) | viability at 48 h, 10 µM (in vitro)
> 10 µM | > 10 µM | 6 µM | > 10 µM | CN(C(=O)c1ccc(Cl)cc1)c1c(C(=O)O)[nH]c2cc(Cl)cc(Cl)c12 [Reference Example 80, 3-((4-chlorobenzoyl)methylamino)-4,6-dichloro-1H-indole-2-carboxylic acid] | > 10 µM |  |  |  |  |  |  | 
> 10 µM | > 10 µM | 0.9 µM | > 10 µM | CCN(C(=O)c1ccccc1)c1c(C(=O)O)[nH]c2cc(Cl)cc(Cl)c12 [Reference Example 85, 3-((Benzoyl)ethlamino)-4,6-dichloro-1H-indole-2-carboxylic acid] | > 10 µM |  |  |  |  |  |  | 
> 10 µM | > 10 µM | > 10 µM | > 10 µM | CCOC(=O)c1[nH]c2ccccc2c1Nc1ccncc1 [Example 11, 3-(4-pyridinylamino)-1H-indole-2-carboxylic acid, ethyl ester] | > 10 µM |  |  |  |  |  |  | 
> 10 µM | > 10 µM | 3.6 µM | > 10 µM | CN(C(=O)c1ccccc1)c1c(C(=O)O)[nH]c2cc(Cl)cc(Cl)c12 [Reference Example 77, 3-((Benzoyl)methylamino)-4,6-dichloro-1H-indole-2-carboxylic acid] | > 10 µM |  |  |  |  |  |  | 
> 10 µM | > 10 µM | 1 µM | > 10 µM | CN(C(=O)c1ccccc1)c1c(C(=O)O)[nH]c2cc(F)ccc12 [Reference Example 86, 3-((Benzoyl)methylamino)-6-fluoro-1H-indole-2-carboxylic acid] | > 10 µM |  |  |  |  |  |  | 
> 10 µM | > 10 µM | 1 µM | > 10 µM | CN(C(=O)c1ccccc1)c1c(C(=O)O)[nH]c2cc(Cl)c(Cl)cc12 [Reference Example 84, 3-((Benzoyl)methylamino)-5,6-dichloro-1H-indole-2-carboxylic acid] | > 10 µM |  |  |  |  |  |  | 
> 10 µM | > 10 µM | 2.5 µM | > 10 µM | CN(C(=O)c1cccc(F)c1)c1c(C(=O)O)[nH]c2cc(Cl)cc(Cl)c12 [Reference Example 88, 3-((3-Fluorobenzoyl)methylamino)-4,6-dichloro-1H-indole-2-carboxylic acid] | > 10 µM |  |  |  |  |  |  | 
> 10 µM | > 10 µM | 0.3 µM | > 10 µM | O=C(Nc1c(C(=O)O)[nH]c2cc(Cl)ccc12)c1ccccc1 [Reference Example 78, 3-((Benzoyl)amino)-6-chloro-1H-indole-2-carboxylic acid] | > 10 µM |  |  |  |  |  |  | 
9.5 µM | > 10 µM | 6 µM | 7 µM | O=C(O)c1[nH]c2cc(Cl)cc(Cl)c2c1N(Cc1ccccc1)C(=O)c1ccccc1 [Reference Example 81, 3-((Benzoyl)benzylamino)-4,6-dichloro-1H-indole-2-carboxylic acid] | > 10 µM |  |  |  |  |  |  | 
